From article PMC8780828 (Viruses, 2021)
Entries after “also recorded” stand apart in the source; their conditions may differ. Read-outs that look alike come from different tables or passages of the source.

Legend:
[1] = test system: pseudovirus NL4-3ΔEnv-NanoLuc/SARS-CoV-2; test: organism not typed; format: cell-based; conditions: 293T/ACE2
[2] = test system: pseudovirus NL4-3ΔEnv-NanoLuc/SARS-CoV-2; test: organism not typed; format: cell-based; conditions: HT-1080; n=3
[3] = test system: pseudovirus NL4-3ΔEnv-NanoLuc/SARS-CoV-2; test: organism not typed; format: cell-based; conditions: A549-ACE2; n=3
[4] = test system: pseudovirus NL4-3ΔEnv-NanoLuc/SARS-CoV; test: microbe, parasite or virus in culture; format: cell-based; conditions: Severe acute respiratory syndrome coronavirus, 293T/ACE2; n=3
[5] = test system: pseudovirus NL4-3ΔEnv-NanoLuc/SARS-CoV; test: microbe, parasite or virus in culture; format: cell-based; conditions: Severe acute respiratory syndrome coronavirus, HT-1080; n=3; read-out: IC50
[6] = test system: pseudovirus NL4-3ΔEnv-NanoLuc/SARS-CoV; test: microbe, parasite or virus in culture; format: cell-based; conditions: Severe acute respiratory syndrome coronavirus, A549-ACE2; n=3; read-out: IC50
[7] = test system: pseudovirus NL4-3ΔEnv-NanoLuc/MERS-CoV; test: microbe, parasite or virus in culture; format: cell-based; conditions: Middle East respiratory syndrome-related coronavirus, Huh-7; n=3; read-out: IC50
[8] = test system: pseudovirus NL4-3ΔEnv-NanoLuc/MERS-CoV; test: microbe, parasite or virus in culture; format: cell-based; conditions: Middle East respiratory syndrome-related coronavirus, MRC5; n=3; read-out: IC50
[9] = test system: control pseudovirus NL4-3.Luc.R-E-/A-MLV; test: Control pseudovirus A-MLV assay in 293T/ACE2 cells; format: cell-based, amphotropic murine leukemia virus (A-MLV); conditions: NL43, 293T/ACE2
[10] = test system: NL4-3ΔEnv-NanoLuc/SARS-CoV-2; test: organism not typed; format: cell-based
[11] = test system: pseudovirus NL4-3ΔEnv-NanoLuc/SARS-CoV-2; test: SARS-CoV-2 pseudovirus assay with pre-treated 293T/ACE2 cells; format: cell-based; conditions: 293T/ACE2 cells pre-treated with compound 30 min before infection
[12] = test system: SARS-CoV-2 (US_WA-1/2020); format: cell-based
[13] = test system: MERS-CoV pseudovirus; test: microbe, parasite or virus in culture; format: cell-based; conditions: Middle East respiratory syndrome-related coronavirus
[14] = in vitro; conditions: human
[15] = in vitro; conditions: human; remark: listed apart in the source
[16] = target: β-lactamase; format: biochemical
[17] = test system: Trypsin; format: biochemical
[18] = target: malate dehydrogenase (MDH); format: biochemical
[19] = in vitro; conditions: both, human, microsomes, pH 7.4
[20] = test system: SARS-CoV-2; conditions: A549-hACE2 cells; NLuc-based assay; cited from earlier work
[21] = test system: SARS-CoV-2; conditions: Vero E6 cells; NLuc-based assay; cited from earlier work
[22] = target: FLuc (Photinus pyralis, UniProt P08659); format: biochemical
Sequence of FLuc (P08659 whole entry): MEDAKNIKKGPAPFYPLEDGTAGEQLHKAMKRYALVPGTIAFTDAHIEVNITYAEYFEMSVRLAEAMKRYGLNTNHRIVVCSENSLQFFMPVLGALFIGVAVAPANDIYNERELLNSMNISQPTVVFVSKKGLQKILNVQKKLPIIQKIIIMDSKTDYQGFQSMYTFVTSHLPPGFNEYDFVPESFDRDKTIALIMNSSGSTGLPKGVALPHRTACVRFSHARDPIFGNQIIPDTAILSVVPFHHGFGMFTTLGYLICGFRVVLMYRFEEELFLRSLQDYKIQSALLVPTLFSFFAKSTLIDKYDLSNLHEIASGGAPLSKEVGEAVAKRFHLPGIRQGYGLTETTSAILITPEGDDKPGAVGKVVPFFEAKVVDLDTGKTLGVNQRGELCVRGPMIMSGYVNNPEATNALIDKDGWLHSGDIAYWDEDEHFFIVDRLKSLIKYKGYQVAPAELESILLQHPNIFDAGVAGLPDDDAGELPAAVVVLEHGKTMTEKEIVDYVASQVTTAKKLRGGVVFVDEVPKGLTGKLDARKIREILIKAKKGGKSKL

SMILES	IC50 [1] [µM]	IC50 [2] [µM]	antiviral activity against SARS-CoV-2 pseudovirus [10]	CC50 [14] [µM]	CC50 [15] [µM]	other results
Cc1c(C(=O)O)cncc1-c1ccc(/C=C2\SC(=S)N(CCc3ccccc3)C2=O)o1 [NBCoV9]	0.342 ± 0.046	0.365 ± 0.073	–	–	–	IC50 [3]: 0.596 ± 0.042 µM; IC50 [4]: 0.217 ± 0.022 µM; IC50 [5]: 0.246 ± 0.01 µM; IC50 [6]: 0.35 ± 0.015 µM; IC50 [7]: 0.214 ± 0.023 µM; IC50 [8]: 0.232 ± 0.017 µM; IC50 [9]: 1.63 ± 0.118 µM; IC100 (range of IC100 values detected in the three cell lines) [10]: 2 to 3 µM; IC50 [11]: > 2 µM; IC100 [12]: > 10 µM; IC50 [13]: ~0.2 µM
O=C1C(=Cc2ccc(-c3ccc(Cl)cc3)o2)SC(=S)N1CCc1ccccc1 [NBCoV15, 5-((5-(4-chlorophenyl)furan-2-yl)methylene)-3-phenethyl-2-thioxothiazolidin-4-one]	> 2	> 2	virtually no inhibition; also recorded: no antiviral activity; also recorded: no antiviral potency	–	–	–
O=C1NC(=S)S/C1=C\c1ccc(-c2ccc(Cl)c(C(=O)O)c2)o1 [NBCoV17]	> 2	> 2	no antiviral activity; also recorded: did not show any inhibitory activities	> 100	> 100	–
C#CCN1C(=O)/C(=C/c2ccc(-c3ccc(Cl)c(C(=O)O)c3)o2)SC1=S [NBCoV28]	> 2	> 2	no antiviral activity; also recorded: did not show any inhibitory activities	> 100	92 ± 3	–
O=C1NC(=S)S/C1=C\c1ccc(-c2ccc(C(=O)O)cc2)o1 [NBCoV34]	> 2	> 2	no antiviral activity; also recorded: no inhibitory activity	83 ± 4	~100	IC50 [16]: > 2 µM; IC50 [17]: > 2 µM; IC50 [18]: > 2 µM
C[C@]12CC[C@H]3[C@@H](CCC4=CC(=O)CC[C@@]43C)[C@@H]1CC[C@@H]2O [Testosterone, reference compound]	–	–	–	–	–	half-life [19]: 11.3 min; microsomal CLint [19]: 122 µL/min/mg
CCC(CC)COC(=O)[C@H](C)N[P@](=O)(OC[C@H]1O[C@@](C#N)(c2ccc3c(N)ncnn23)[C@H](O)[C@@H]1O)Oc1ccccc1 [remdesivir]	–	–	–	–	–	antiviral potency [20]: 0.115 µM; antiviral potency [21]: 1.28 µM
Oc1ccc(/C=C/c2cc(O)cc(O)c2)cc1 [resveratrol]	–	–	–	–	–	effect on FLuc activity [22]: completely blocked
